# Test results reported in article PMC3050433, “The effects of maribavir on the autophosphorylation of ganciclovir resistant mutants of the cytomegalovirus UL97 protein” (Herpesviridae, 2010).
# Changes are numbered by the printed parent chain. Entries after “also recorded” stand apart in the source; their conditions may differ.
# Legend:
# Conditions in all cases: wild type normalised to 100%
# UL97 K355Q = target: T1, UL97 K355Q (Human cytomegalovirus, UniProt Q68101, K355Q); assay: GCV phosphorylation in baculovirus-infected Sf21 insect cells, K355Q; assay type: cell-based
# T1 construct: PCR reaction to generate the full length UL97; honey bee melittin secretion signal (N); expressed in transfected cells; host or cells: Sf21 insect cells infected with recombinant baculovirus
# T1 sequence (Q68101 1-707 K355Q): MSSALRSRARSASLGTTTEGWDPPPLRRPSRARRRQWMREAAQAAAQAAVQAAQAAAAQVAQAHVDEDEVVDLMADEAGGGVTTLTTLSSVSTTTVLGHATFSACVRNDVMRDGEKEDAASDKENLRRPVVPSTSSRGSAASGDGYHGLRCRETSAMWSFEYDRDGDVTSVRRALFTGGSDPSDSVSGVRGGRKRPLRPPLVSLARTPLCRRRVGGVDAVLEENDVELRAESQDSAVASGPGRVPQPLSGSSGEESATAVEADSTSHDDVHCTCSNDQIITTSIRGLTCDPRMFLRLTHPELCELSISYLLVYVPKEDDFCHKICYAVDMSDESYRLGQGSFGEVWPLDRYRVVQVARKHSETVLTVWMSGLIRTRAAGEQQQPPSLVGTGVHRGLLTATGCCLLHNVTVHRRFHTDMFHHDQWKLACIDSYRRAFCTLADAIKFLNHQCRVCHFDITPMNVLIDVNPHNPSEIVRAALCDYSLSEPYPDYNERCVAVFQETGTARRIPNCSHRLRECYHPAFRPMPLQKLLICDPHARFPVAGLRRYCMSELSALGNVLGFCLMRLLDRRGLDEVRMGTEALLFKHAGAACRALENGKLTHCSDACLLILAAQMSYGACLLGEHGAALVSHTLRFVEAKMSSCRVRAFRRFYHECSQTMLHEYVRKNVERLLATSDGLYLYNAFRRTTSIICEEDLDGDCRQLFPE
# Description: (§1) Sf21 insect cells were infected with wild type or mutant UL97 recombinant baculoviruses at an m.o.i. of 10. After 48 h incubation at 28°C, the culture medium was replaced with fresh medium containing 1.0 mM GCV and [^3H] GCV (0.55 Mbq, Moravek Radiochemicals, California, USA) After a further 24 hours of incubation, nucleotides were harvested by acid hydrolysis (0.5 M perchloric acid), neutralisation to pH 7.5 (2.5 M KOH, 1.5 M KH2PO4) and centrifugation (13000 × g). 50 μl aliquots of supernatant were spotted onto 20 mm diameter DEAE-coated DE81 chromatographic paper discs and the monophosphorylated GCV allowed to bind. The discs were washed twice in 3 ml 10 mM ammonium acetate for 10 minutes and twice in 95% ethanol for 10 minutes. After drying 5 ml of sigmafluor was added (Sigma Chemicals, Dorset, UK) and the radioactivity determined by liquid scintillation counting.
# UL97 D456A = target: T2, UL97 D456A (Human cytomegalovirus, UniProt Q68101, D456A); assay: GCV phosphorylation in baculovirus-infected Sf21 insect cells, D456A; assay type: cell-based
# T2 construct: PCR reaction to generate the full length UL97; honey bee melittin secretion signal (N); made in house; host or cells: Sf21 insect cells, recombinant baculovirus (pMelBac C)
# T2 sequence (Q68101 1-707 D456A): T1 sequence (Q68101 1-707 K355Q) with Q355K, D456A
# Description: as §1
# UL97 N461G = assay: GCV phosphorylation in baculovirus-infected Sf21 insect cells, N461G; assay type: cell-based, human cytomegalovirus
# Description: as §1
compound,measurement,setting,value
"Nc1nc(O)c2ncn(COC(CO)CO)c2n1 [GCV, ganciclovir]",GCV phosphorylation relative to wild type UL97,UL97 K355Q,unable to phosphorylate GCV; also recorded: complete loss of GCV kinase activity
same,GCV phosphorylation relative to wild type UL97,UL97 D456A,no effect on GCV phosphorylation
same,GCV phosphorylation relative to wild type UL97,UL97 N461G,complete loss of GCV kinase activity
